Experimental data reported in patent US8697369B2, “Method for screening a test substance for activating a receptor associated with FGF 21 activity” (National Institute of Advanced Industrial Science and …, priority 2007, dated 2014).
“Also recorded” adds a separate entry of the source. One block for each substance: values may come before it.

Legend:
[1] = molecular target: T1, FGFR1c/betaKlotho-expressing BaF3 cells (Mus musculus, UniProt P16092+Q99N32); experiment: DNA synthesis (thymidine incorporation) in FGFR1c/betaKlotho-expressing BaF3 cells; type: cell-based
T1 construct: the entire-length cDNA of mouse FGFR1c had been cloned; the entire-length cDNA of mouse betaKlotho was cloned into an animal cell expression vector; expressed in transfected cells; host or cells: BaF3 (mouse pro-B) cells
Description: (§1) A commonly used measurement method is a cell growth stimulating activity measurement method described in Ornitz, D. M., Xu, J., Colvin, J. S., McEwen, D. G., MacArthur, C. A., Coulier, F., Gao, G. and Goldfarb, M. (1996) Receptor specificity of the fibroblast growth factor family. J Biol Chem, 271, 15292-15297. The summary thereof is as follows. FGF used as a measurement target is added to a culture solution containing a cultured cell having an FGF receptor on the surface thereof, and the obtained mixture is cultured for a certain period of time. Thereafter, a labeled thymidine is added to the culture solution, followed by further culture for a certain period of time. By measuring the amount of the labeled thymidine incorporated into polymeric DNA during the culture, the degree of FGF to activate DNA synthesis is evaluated. (In the present invention as well, this method was adopted when the activity of FGF21 was measured in Examples 4, 5, 6, 8, 9, and 10.)
FGFR1c-expressing BaF3 cells and FGFR1c- and betaKlotho-expressing BaF3 cells were prepared as follows. In the case of FGFR1c-expressing BaF3 cells, an animal cell expression vector into which the entire-length cDNA of mouse FGFR1c had been cloned (described in Ornitz, D. M., Xu, J., Colvin, J. S., McEwen, D. G., MacArthur, C. A., Coulier, F., Gao, G. and Goldfarb, M. (1996) Receptor specificity of the fibroblast growth factor family. J Biol Chem, 271, 15292-15297.) was introduced into BaF3 cells by an electroporation method. The cells were then cultured in the presence of G418 for approximately 2 weeks, so as to obtain drug-resistant clones. Thereafter, such clones were obtained as those capable of growing as a result of FGF1 stimulation. In the case of both FGFR1c- and betaKlotho-expressing BaF3 cells, the entire-length cDNA of mouse betaKlotho was cloned into an animal cell expression vector, and it was then introduced into the FGFR1c-expressing BaF3 cells. The cells were then cultured in the presence of Puromycin and G418 for approximately 2 weeks, so as to obtain drug-resistant clones. In the case of only betaKlotho-expressing BaF3 cells, a betaKlotho-expressing vector was introduced into BaF3 cells, and Puromycin-resistant clones were then obtained. The BaF3 cells, into which the aforementioned genes had been each introduced, were maintained in an RPMI1640 medium containing 10% FBS and interleukin 3 (IL3, supplied by adding a 5% condition medium of WEHI-3 cells). For the growth stimulation experiment, the cells were washed with an RPMI1640 medium, and they were then suspended in an RPMI1640 medium containing 10% FBS, followed by inoculating the suspension on a culture plate. Thereafter, the resultant cells were used.
Immediately after inoculation, BaF3 cells that had expressed each clone and only FGFR1c were stimulated by addition of FGF21 (open bar) or PBS (filled bar) used as a control in the presence of heparin, and they were then cultured for 42 hours. Thereafter, tritium-labeled thymidine was added to the culture solution, and the culture was further continued for 6 hours. Thereafter, the amount of thymidine incorporated into the cells was measured, so as to evaluate DNA synthesis. A DNA synthesis value obtained when the cells were not stimulated with FGF21 was defined as 1, and the ratio of a DNA synthesis value obtained by stimulating with FGF21 to the aforementioned DNA synthesis value was expressed using magnification. […]

[2] = test system: FGFR3c/betaKlotho-expressing BaF3 cells; experiment: DNA synthesis (thymidine incorporation) in FGFR3c/betaKlotho-expressing BaF3 cells; type: cell-based, mouse
Description: as §1
(§2) Whether other receptor molecules can also act as such FGF receptors was examined. An expression vector containing each FGFR (FGFR1b, R1c, R2b, R2c, R3b, R3c, and R4) (described in Ornitz, D. M., Xu, J., Colvin, J. S., McEwen, D. G., MacArthur, C. A., Coulier, F., Gao, G. and Goldfarb, M. (1996) Receptor specificity of the fibroblast growth factor family. J Biol Chem, 271, 15292-15297.) was introduced into betaKlotho-expressing BaF3 cells, so as to obtain clones that were resistant to Puromycin and G418, thereby obtaining FGFR/betaKlotho-expressing cells. Such cells were stimulated with FGF21, and the amount of DNA synthesized was measured.
The activity of FGF21 to stimulate the DNA synthesis of BaF3 cells that had expressed each FGFR (FGFR1c, R2c, F3c, and R4) as well as betaKlotho was compared with the activity of FGF19, which was evolutionally relative to FGF21. By procedures opposite to those of Example 5, namely, an expression vector containing betaKlotho was introduced into BaF3 cells that had expressed each type of FGFR, so as to obtain Puromycin- and G418-resistant clones, thereby obtaining FGFR/betaKlotho-expressing cells. The cells were stimulated with FGF21, FGF19, and FGF1 in the presence of heparin, while changing the amounts of FGF21, FGF19, and FGF1, as shown in the figure, and the amount of DNA synthesized was then measured.

[3] = molecular target: T2, FGFR2c/betaKlotho-expressing BaF3 cells (Mus musculus, UniProt P21803+Q99N32); experiment: DNA synthesis (thymidine incorporation) in FGFR2c/betaKlotho-expressing BaF3 cells; type: cell-based; details: BaF3 cells expressing FGFR2c and betaKlotho; presence of heparin
T2 construct: the entire-length cDNA of mouse betaKlotho was cloned into an animal cell expression vector; expressed in transfected cells; host or cells: BaF3 (mouse pro-B) cells
Description: as §1, §2
(§3) The activity of FGF21 to stimulate the DNA synthesis of BaF3 cells that had expressed each FGFR (FGFR1c, R2c, F3c, and R4) as well as betaKlotho was compared with the activity of FGF19, which was evolutionally relative to FGF21. […] The cells were stimulated with FGF21, FGF19, and FGF1 in the presence of heparin, while changing the amounts of FGF21, FGF19, and FGF1, as shown in the figure, and the amount of DNA synthesized was then measured.

[4] = test system: FGFR4/betaKlotho-expressing BaF3 cells; experiment: DNA synthesis (thymidine incorporation) in FGFR4/betaKlotho-expressing BaF3 cells; type: cell-based, mouse; details: BaF3 cells expressing FGFR4 and betaKlotho; presence of heparin
Description: as §1, §2, §3

[5] = molecular target: T3, R1c/betaKlotho-expressing cells (Mus musculus, UniProt P16092+Q99N32); experiment: Phosphorylation of FRS2 and MAPK (Western blotting) in R1c/betaKlotho-expressing cells; type: cell-based; details: presence of heparin; 10 minutes stimulation
T3 construct: the entire-length cDNA of mouse FGFR1c had been cloned; the entire-length cDNA of mouse betaKlotho was cloned into an animal cell expression vector; expressed in transfected cells; host or cells: BaF3 (mouse pro-B) cells
Description: (§4) Each FGFR/betaKlotho-expressing cells obtained in Example 6 were stimulated with FGF, and the activated state (phosphorylated state) of a signaling molecule FRS2 (fibroblast growth factor receptor substrate 2) located downstream of FGFR, and that of MAPK (mitogen activated protein kinase; alias: ERK (extracellular signal-regulated kinase; in general, there are two types of ERKs, namely, ERK1 with a molecular weight of 44 kDa and ERK2 with a molecular weight of 42 kDa)), were analyzed. Different types of cells were stimulated with each FGF in the presence of heparin for 10 minutes, and a cell lysate was then prepared. Thereafter, the phosphorylated degree was evaluated by measuring it by a Western blotting method using a commercially available anti-phosphorylation FRS2 antibody or an anti-phosphorylation MAPK antibody.

[6] = molecular target: T4, FGFR2c/betaKlotho-expressing cells (Mus musculus, UniProt P21803+Q99N32); experiment: Phosphorylation of FRS2 and MAPK (Western blotting) in FGFR2c/betaKlotho-expressing cells; type: cell-based; details: presence of heparin; 10 minutes stimulation
T4 construct: the entire-length cDNA of mouse betaKlotho was cloned into an animal cell expression vector; expressed in transfected cells; host or cells: BaF3 (mouse pro-B) cells
Description: as §4

[7] = test system: R3c/betaKlotho-expressing cells; experiment: Phosphorylation of FRS2 and MAPK (Western blotting) in R3c/betaKlotho-expressing cells; type: cell-based, mouse; details: presence of heparin; 10 minutes stimulation
Description: as §4

[8] = test system: FGFR4/betaKlotho-expressing cells; experiment: Phosphorylation of FRS2 and MAPK (Western blotting) in FGFR4/betaKlotho-expressing cells; type: cell-based, mouse; details: presence of heparin; 10 minutes stimulation
Description: as §4

[9] = molecular target: T5, betaKlotho-expressing BaF3 cells (Mus musculus, UniProt Q99N32); experiment: DNA synthesis (thymidine incorporation) in BaF3 cells expressing only betaKlotho; type: cell-based; details: presence or absence of heparin
T5 construct: the entire-length cDNA of mouse betaKlotho was cloned into an animal cell expression vector; expressed in transfected cells; host or cells: BaF3 (mouse pro-B) cells
T5 sequence (Q99N32 1-1043): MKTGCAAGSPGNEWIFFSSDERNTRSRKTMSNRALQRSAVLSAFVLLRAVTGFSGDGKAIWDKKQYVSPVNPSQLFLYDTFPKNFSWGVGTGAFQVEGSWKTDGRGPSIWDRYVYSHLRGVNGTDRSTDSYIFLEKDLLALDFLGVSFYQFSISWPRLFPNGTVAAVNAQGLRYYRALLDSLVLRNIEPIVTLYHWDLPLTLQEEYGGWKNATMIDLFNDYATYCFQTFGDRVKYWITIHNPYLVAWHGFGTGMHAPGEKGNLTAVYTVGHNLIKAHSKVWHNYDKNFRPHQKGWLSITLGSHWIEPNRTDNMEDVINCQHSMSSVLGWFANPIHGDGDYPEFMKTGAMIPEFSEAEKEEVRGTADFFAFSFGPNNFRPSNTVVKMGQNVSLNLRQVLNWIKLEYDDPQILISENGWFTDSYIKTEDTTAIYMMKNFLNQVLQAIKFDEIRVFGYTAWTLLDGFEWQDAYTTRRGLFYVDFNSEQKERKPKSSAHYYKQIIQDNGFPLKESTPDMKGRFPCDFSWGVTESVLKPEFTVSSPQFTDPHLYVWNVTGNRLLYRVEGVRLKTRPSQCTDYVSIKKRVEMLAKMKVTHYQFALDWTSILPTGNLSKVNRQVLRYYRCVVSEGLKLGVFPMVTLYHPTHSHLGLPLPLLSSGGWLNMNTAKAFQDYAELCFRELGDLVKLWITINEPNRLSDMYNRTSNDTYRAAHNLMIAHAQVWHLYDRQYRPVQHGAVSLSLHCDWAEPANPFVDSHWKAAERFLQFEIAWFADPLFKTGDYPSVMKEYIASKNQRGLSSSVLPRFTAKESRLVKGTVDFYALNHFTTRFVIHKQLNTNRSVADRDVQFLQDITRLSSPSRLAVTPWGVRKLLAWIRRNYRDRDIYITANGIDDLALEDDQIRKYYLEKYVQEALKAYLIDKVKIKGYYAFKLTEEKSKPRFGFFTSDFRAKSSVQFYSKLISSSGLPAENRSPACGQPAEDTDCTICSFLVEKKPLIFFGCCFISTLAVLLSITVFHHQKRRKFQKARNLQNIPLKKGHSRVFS
Description: as §1, with “10.) […]” for “10.)”
Immediately after inoculation, BaF3 cells that had expressed each clone and only FGFR1c were stimulated by addition of FGF21 (open bar) or PBS (filled bar) used as a control in the presence of heparin, and they were then cultured for 42 hours. […] Thereafter, the amount of thymidine incorporated into the cells was measured, so as to evaluate DNA synthesis. […]

T1 sequence (P16092 22-822, one chain of several): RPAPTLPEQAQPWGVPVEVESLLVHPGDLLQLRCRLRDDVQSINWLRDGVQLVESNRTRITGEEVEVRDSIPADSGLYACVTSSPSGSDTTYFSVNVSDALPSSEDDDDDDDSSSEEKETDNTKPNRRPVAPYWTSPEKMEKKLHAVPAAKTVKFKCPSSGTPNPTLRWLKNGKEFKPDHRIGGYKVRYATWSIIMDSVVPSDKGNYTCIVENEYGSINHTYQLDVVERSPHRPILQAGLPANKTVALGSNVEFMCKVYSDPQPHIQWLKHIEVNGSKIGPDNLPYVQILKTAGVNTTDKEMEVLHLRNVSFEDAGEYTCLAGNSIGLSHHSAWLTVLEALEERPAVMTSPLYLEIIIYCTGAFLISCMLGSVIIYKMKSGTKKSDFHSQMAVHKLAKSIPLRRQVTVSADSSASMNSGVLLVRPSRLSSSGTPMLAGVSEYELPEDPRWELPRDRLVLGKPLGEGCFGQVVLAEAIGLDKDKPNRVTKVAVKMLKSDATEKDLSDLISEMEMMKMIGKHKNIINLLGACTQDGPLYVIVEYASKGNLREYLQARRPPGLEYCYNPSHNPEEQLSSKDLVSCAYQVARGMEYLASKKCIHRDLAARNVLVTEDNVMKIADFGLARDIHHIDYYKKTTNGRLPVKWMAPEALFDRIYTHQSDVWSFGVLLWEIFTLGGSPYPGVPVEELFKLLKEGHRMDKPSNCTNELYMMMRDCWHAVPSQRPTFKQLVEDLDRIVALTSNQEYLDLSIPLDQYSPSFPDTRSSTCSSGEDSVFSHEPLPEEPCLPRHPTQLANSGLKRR
FGFR3c/betaKlotho-expressing BaF3 cells, sequence (Q61851 21-369 limits assumed, one chain of several): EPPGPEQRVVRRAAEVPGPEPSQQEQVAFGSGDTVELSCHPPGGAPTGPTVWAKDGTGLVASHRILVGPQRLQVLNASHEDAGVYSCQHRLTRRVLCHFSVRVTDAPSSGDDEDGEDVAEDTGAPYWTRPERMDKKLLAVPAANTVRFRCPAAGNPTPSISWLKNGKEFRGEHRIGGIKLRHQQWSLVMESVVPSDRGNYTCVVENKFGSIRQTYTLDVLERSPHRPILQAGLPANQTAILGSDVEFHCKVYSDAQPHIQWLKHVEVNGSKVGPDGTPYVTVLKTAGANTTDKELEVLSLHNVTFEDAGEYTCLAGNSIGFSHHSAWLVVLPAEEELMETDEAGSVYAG
R3c/betaKlotho-expressing cells, sequence (Q61851 21-369 limits assumed, one chain of several): as above
T2 sequence (P21803 22-821, one chain of several): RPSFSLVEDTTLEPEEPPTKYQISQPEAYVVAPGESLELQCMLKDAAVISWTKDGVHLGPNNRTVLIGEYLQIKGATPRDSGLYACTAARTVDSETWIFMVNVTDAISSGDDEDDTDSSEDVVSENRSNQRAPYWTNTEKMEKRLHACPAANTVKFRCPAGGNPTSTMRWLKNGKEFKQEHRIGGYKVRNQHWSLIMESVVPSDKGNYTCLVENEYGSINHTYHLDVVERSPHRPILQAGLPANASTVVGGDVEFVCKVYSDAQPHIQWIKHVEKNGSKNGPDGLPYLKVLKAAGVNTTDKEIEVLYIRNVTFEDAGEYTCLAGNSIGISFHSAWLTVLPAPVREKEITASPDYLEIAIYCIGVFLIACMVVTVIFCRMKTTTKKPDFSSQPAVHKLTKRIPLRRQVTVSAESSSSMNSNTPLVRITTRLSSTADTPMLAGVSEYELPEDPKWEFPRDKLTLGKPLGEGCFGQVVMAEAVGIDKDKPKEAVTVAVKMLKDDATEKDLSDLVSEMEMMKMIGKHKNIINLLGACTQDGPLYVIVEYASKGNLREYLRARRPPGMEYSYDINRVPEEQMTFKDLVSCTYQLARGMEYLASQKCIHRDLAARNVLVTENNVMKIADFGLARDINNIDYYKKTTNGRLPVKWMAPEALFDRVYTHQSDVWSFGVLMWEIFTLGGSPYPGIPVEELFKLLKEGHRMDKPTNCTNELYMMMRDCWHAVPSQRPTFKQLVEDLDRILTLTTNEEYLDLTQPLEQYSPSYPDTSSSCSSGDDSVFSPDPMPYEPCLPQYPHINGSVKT
T4 sequence (P21803 22-821, one chain of several): as above
T3 sequence (P16092 22-822, one chain of several): as the sequence (P16092 22-822, one chain of several) above
FGFR4/betaKlotho-expressing BaF3 cells, sequence (Q03142 17-366 limits assumed, one chain of several): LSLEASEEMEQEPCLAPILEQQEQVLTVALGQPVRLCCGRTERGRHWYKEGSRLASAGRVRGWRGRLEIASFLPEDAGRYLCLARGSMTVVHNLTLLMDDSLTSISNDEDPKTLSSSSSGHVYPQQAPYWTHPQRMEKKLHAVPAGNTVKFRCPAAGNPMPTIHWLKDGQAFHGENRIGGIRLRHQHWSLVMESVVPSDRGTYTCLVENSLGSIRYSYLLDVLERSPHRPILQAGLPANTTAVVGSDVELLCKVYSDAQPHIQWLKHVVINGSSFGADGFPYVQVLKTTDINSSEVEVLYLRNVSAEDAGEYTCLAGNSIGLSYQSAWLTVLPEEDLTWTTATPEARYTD
FGFR4/betaKlotho-expressing cells, sequence (Q03142 143-366 limits assumed, one chain of several): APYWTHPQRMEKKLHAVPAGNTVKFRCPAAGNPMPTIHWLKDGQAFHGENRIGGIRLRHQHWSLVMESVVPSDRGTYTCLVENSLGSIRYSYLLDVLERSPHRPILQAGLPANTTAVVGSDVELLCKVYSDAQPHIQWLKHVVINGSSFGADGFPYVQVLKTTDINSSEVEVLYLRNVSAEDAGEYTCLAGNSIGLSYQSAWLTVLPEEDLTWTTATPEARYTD

Substance: heparin [reference compound]
effect of heparin on the action of FGF21 (DNA synthesis) ([1]; FGFR1c/betaKlotho-expressing BaF3 cells stimulated with FGF21): increases the action of FGF21; also recorded: reactivity was increased
effect of heparin on reactivity with FGF21 (DNA synthesis) ([2]; FGFR3c/betaKlotho-expressing BaF3 cells stimulated with FGF21): reactivity was increased

DNA synthesis (thymidine incorporated into the cells) ([1]; BaF3 cells expressing FGFR1c and betaKlotho, presence or absence of heparin): strong activity
DNA synthesis (thymidine incorporated into the cells) [3]: strong activity
Substance: FGF19: FGF family member evolutionally relative to FGF21, used for comparison
DNA synthesis (thymidine incorporated into the cells) ([2]; BaF3 cells expressing FGFR3c and betaKlotho): strong activity
DNA synthesis (thymidine incorporated into the cells) [4]: strong activity
phosphorylation of FRS2 and MAPK [5]: significantly increase the phosphorylation
phosphorylation of FRS2 and MAPK [6]: significantly increase the phosphorylation
phosphorylation of FRS2 and MAPK [7]: significantly increase the phosphorylation
phosphorylation of FRS2 and MAPK [8]: significantly increase the phosphorylation

DNA synthesis (thymidine incorporated into the cells) [9]: significantly grew
Substance: interleukin 3 [reference compound]
